Assay results: patent publication US20230265151A1, “GIP/GLP1 CO-AGONIST COMPOUNDS” (priority 2020, published 2023)
Like-named read-outs stand apart in the source and are kept apart here. *1 amine or outer side, *2 acyl side, *3 side chain or, on linkers, in order; H or OH if unused. Where a SMILES comes first, the peptide text is derived from it. Side-chain parts run from the residue outwards. [ ]: non-standard residue; d: D form. The star is where a group is joined. Decanoyl(10-(4-HOOC-PhO)) = O=C(O)c1ccc(OCCCCCCCCCC(=O)*)cc1; αMePhe(2-F) = C[C@](N)(Cc1ccccc1F)C(=O)O; γGlu = O=C(O)[C@H](CCC(=O)[*:2])N[*:1]; C14 diacid = O=C(O)CCCCCCCCCCCCC(=O)*; αMeY = C[C@](N)(Cc1ccc(O)cc1)C(=O)O; αMeL = CC(C)C[C@](C)(N)C(=O)O; Orn = NCCC[C@H](N)C(=O)O; AEEA = NCCOCCOCC(=O)O; Aib = CC(C)(N)C(=O)O

Tests used:
Type in all cases: cell-based
hGCGR = biological target: T1, hGCGR (Homo sapiens, UniProt P47871); experiment: Functional cAMP formation (HTRF) in HEK-293 clonal cells expressing hGCGR, 0.1% bovine casein, without or with 1.0% human serum albumin
T1 construct: expressed in transfected cells
Outline: (§1)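 Cells were stimulated with peptide for 30 min at 37° C, then lysed in buffer carrying cAMP-d2 and anti-cAMP Eu3+-cryptate for a competitive HTRF read after at least 60 min at room temperature. The 665/620 nm ratio was converted to nM cAMP against a standard curve.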

hGLP-1R = hGLP-1R (Homo sapiens, UniProt P43220); experiment: Functional cAMP formation (HTRF) in HEK-293 clonal cells expressing hGLP-1R, 0.1% bovine casein, without or with 1.0% human serum albumin; design: expressed in transfected cells; conditions: for Emax: percent of maximal response to GLP-1(7-36)NH2; for EC50: cAMP, 0.1% bovine casein (no human serum albumin), geometric mean
Outline: as §1

hGIPR = biological target: T2, hGIPR (Homo sapiens, UniProt P48546); experiment: Functional cAMP formation (HTRF) in HEK-293 clonal cells expressing hGIPR, 0.1% bovine casein, without or with 1.0% human serum albumin; conditions: for Emax: percent of maximal response to GIP(1-42)NH2; for EC50: cAMP, 0.1% bovine casein (no human serum albumin), geometric mean
T2 construct: expressed in transfected cells
T2 sequence (P48546 22-466): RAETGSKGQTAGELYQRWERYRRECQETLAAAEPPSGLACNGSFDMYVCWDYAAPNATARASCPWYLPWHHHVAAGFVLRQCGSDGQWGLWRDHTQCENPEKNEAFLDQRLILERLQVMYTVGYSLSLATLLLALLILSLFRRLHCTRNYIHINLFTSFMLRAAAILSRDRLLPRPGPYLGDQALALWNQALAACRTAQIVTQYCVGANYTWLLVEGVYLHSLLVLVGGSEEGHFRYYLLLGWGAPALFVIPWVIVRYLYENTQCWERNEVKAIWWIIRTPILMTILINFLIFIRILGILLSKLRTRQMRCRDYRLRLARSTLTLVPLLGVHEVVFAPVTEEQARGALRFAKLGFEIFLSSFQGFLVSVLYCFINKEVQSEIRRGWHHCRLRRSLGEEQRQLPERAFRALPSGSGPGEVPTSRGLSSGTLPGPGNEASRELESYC
Outline: as §1

[1] = 0.1% bovine casein and 1.0% human serum albumin, 37° C., geometric mean, read-out: hGCGR EC50, nM (SEM, n)
[2] = cAMP, 37° C., 0.1% bovine casein (no human serum albumin), geometric mean, read-out: hGCGR EC50, nM (SEM, n)
[3] = HEK293, 0.1% bovine casein and 1.0% human serum albumin, 37° C., read-out: hGLP-1R Emax, % ± SEM
[4] = HEK293, cAMP, 37° C., 0.1% bovine casein, arithmetic mean, read-out: hGLP-1R Emax, % ± SEM
[5] = 37° C., read-out: hGLP-1R EC50, nM (SEM, n)
[6] = HEK293, 0.1% bovine casein and 1.0% human serum albumin, 37° C., read-out: hGIPR Emax, % ± SEM
[7] = HEK293, cAMP, 37° C., 0.1% bovine casein, arithmetic mean, read-out: hGIPR Emax, % ± SEM

T1 sequence (P47871 26-477): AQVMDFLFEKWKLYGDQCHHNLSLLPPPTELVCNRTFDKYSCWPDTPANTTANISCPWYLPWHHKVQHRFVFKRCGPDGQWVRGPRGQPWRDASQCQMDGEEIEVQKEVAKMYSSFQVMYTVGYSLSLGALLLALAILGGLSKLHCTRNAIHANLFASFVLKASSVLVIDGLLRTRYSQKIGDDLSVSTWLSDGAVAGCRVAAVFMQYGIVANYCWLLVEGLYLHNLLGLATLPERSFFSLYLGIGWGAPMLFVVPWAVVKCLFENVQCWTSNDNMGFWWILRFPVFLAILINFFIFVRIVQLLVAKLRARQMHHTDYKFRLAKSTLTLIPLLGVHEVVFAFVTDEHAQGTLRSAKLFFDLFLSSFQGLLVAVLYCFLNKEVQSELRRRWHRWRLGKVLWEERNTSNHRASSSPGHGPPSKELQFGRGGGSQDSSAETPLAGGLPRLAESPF
hGLP-1R, sequence (P43220 24-463): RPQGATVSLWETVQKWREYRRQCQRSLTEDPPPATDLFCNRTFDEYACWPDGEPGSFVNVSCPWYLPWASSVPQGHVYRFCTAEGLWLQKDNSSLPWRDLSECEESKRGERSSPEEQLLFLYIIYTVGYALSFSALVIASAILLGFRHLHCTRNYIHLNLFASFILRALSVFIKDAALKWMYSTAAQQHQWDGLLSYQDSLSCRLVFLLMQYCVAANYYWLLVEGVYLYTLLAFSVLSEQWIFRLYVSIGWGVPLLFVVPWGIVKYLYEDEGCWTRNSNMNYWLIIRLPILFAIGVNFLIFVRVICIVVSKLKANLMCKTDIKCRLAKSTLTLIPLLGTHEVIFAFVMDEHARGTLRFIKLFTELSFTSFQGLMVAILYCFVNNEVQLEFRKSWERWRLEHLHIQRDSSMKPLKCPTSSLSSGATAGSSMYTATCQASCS

| SMILES | EC50 (hGCGR; hGCGR EC50, nM (SEM, n), cAMP, 37° C., 0.1% bovine casein (no human serum albumin), geometric mean) | EC50 (hGCGR; hGCGR EC50, nM (SEM, n), cAMP, 37° C., 0.1% bovine casein and 1.0% human serum albumin, geometric mean (SEM, n)) | Emax (hGLP-1R; HEK293, read-out: hGLP-1R Emax, % ± SEM, cAMP, 37° C., 0.1% bovine casein and 1.0% human serum albumin) | EC50 (hGLP-1R; hGLP-1R EC50, nM (SEM, n), 37° C.) | Emax (hGIPR; HEK293, read-out: hGIPR Emax, % ± SEM, cAMP, 37° C., 0.1% bovine casein and 1.0% human serum albumin) | Emax (hGIPR; HEK293, read-out: hGIPR Emax, % ± SEM, cAMP, 37° C., 0.1% bovine casein, arithmetic mean) | EC50 (hGIPR; hGIPR EC50, nM (SEM, n), 37° C.) | EC50 (hGCGR; [1]) | EC50 (hGCGR; [2]) | Emax (hGLP-1R; [3]) | Emax (hGLP-1R; [4]) | EC50 (hGLP-1R; [5]) | Emax (hGIPR; [6]) | Emax (hGIPR; [7]) | EC50 (hGCGR; cAMP, incubated at 37° C., 0.1% bovine casein (no human serum albumin), geometric mean, read-out: hGCGR EC50, nM (SEM, n)) | EC50 (hGLP-1R; incubated at 37° C., read-out: hGLP-1R EC50, nM (SEM, n)) | EC50 (hGIPR; 37° C., read-out: hGIPR EC50, nM (SEM, n)) |
| --- | --- | --- | --- | --- | --- | --- | --- | --- | --- | --- | --- | --- | --- | --- | --- | --- | --- |
| CC[C@H](C)[C@H](NC(=O)[C@H](CC(C)C)NC(=O)[C@](C)(Cc1ccc(O)cc1)NC(=O)[C@@H](CCC(=O)O)NC(=O)[C@@H](NC(=O)[C@H](Cc1ccccc1)NC(=O)[C@H](CCCN)NC(=O)C(C)(C)NC(=O)[C@H](CCC(N)=O)NC(=O)[C@H](C)NC(=O)[C@H](CCCCNC(=O)COCCOCCNC(=O)COCCOCCNC(=O)CC[C@H](NC(=O)CCCCCCCCCOc1ccc(C(=O)O)cc1)C(=O)O)NC(=O)[C@H](CCCN)NC(=O)[C@H](CC(=O)O)NC(=O)[C@H](CC(C)C)NC(=O)[C@](C)(CC(C)C)NC(=O)[C@@H](NC(=O)C(C)(C)NC(=O)[C@H](Cc1ccc(O)cc1)NC(=O)[C@H](CC(=O)O)NC(=O)[C@H](CO)NC(=O)[C@@H](NC(=O)[C@](C)(Cc1ccccc1F)NC(=O)[C@@H](NC(=O)CNC(=O)[C@H](CCC(=O)O)NC(=O)C(C)(C)NC(=O)[C@@H](N)Cc1ccc(O)cc1)[C@@H](C)O)[C@@H](C)O)[C@@H](C)CC)[C@@H](C)CC)C(=O)N[C@@H](CCCCNC(=O)COCCOCCNC(=O)COCCOCCNC(=O)CC[C@H](NC(=O)CCCCCCCCCOc1ccc(C(=O)O)cc1)C(=O)O)C(=O)NCC(=O)NCC(=O)N1CCC[C@H]1C(=O)N[C@@H](CO)C(=O)N[C@@H](CO)C(=O)NCC(=O)N[C@@H](C)C(=O)N1CCC[C@H]1C(=O)N1CCC[C@H]1C(=O)N1CCC[C@H]1C(=O)N[C@@H](CO)C(N)=O [Example 352] (H-Y[Aib]EGT[αMePhe(2-F)]TSDY[Aib]I[αMeL]LD[Orn]K([AEEA-AEEA-γGlu-Decanoyl(10-(4-HOOC-PhO))])AQ[Aib][Orn]FI[dE][αMeY]LIK([AEEA-AEEA-γGlu-Decanoyl(10-(4-HOOC-PhO))])GGPSSGAPPPS-NH2) | > 9950 nM | > 9950 nM | 93.5% | 0.262 nM | 71.3% | 98.3% | 0.0106 nM |  |  |  |  |  |  |  |  |  |  |
| CC[C@H](C)[C@H](NC(=O)[C@H](CCCN)NC(=O)[C@H](CC(=O)O)NC(=O)[C@H](CC(C)C)NC(=O)[C@](C)(CC(C)C)NC(=O)[C@@H](NC(=O)[C@H](CO)NC(=O)[C@H](Cc1ccc2ccccc2c1)NC(=O)[C@H](CC(=O)O)NC(=O)[C@H](CO)NC(=O)[C@@H](NC(=O)[C@](C)(Cc1ccccc1F)NC(=O)[C@@H](NC(=O)CNC(=O)[C@H](CCC(=O)O)NC(=O)C(C)(C)NC(=O)[C@@H](N)Cc1ccc(O)cc1)[C@@H](C)O)[C@@H](C)O)[C@@H](C)CC)C(=O)N[C@@H](C)C(=O)N[C@@H](CCC(N)=O)C(=O)NC(C)(C)C(=O)N[C@@H](CCC(=O)O)C(=O)N[C@@H](Cc1ccccc1)C(=O)N[C@H](C(=O)N[C@@H](CCCCNC(=O)COCCOCCNC(=O)COCCOCCNC(=O)CC[C@H](NC(=O)CCCCCCCCCCCCC(=O)O)C(=O)O)C(=O)N[C@@](C)(Cc1ccc(O)cc1)C(=O)N[C@@H](CC(C)C)C(=O)N[C@H](C(=O)N[C@@H](CCCCNC(=O)COCCOCCNC(=O)COCCOCCNC(=O)CC[C@H](NC(=O)CCCCCCCCCCCCC(=O)O)C(=O)O)C(=O)NCC(=O)NCC(=O)N1CCC[C@H]1C(=O)N[C@@H](CO)C(=O)N[C@@H](CO)C(=O)NCC(=O)N[C@@H](C)C(=O)N1CCC[C@H]1C(=O)N1CCC[C@H]1C(=O)N1CCC[C@H]1C(=O)N[C@@H](CO)C(N)=O)[C@@H](C)CC)[C@@H](C)CC [Example 252] |  |  |  |  |  |  |  | > 9950 nM | > 9950 nM | 115% | 115% | 0.555 nM | 87.2% | 109% |  |  |  |
| CC[C@H](C)[C@H](NC(=O)[C@H](CC(C)C)NC(=O)[C@](C)(Cc1ccc(O)cc1)NC(=O)[C@@H](CCC(=O)O)NC(=O)[C@@H](NC(=O)[C@H](Cc1ccccc1)NC(=O)[C@H](CCC(=O)O)NC(=O)C(C)(C)NC(=O)[C@H](CCC(N)=O)NC(=O)CNC(=O)[C@H](CCCCNC(=O)COCCOCCNC(=O)COCCOCCNC(=O)CC[C@H](NC(=O)CCCCCCCCCCCCC(=O)O)C(=O)O)NC(=O)[C@H](CCCN)NC(=O)[C@H](CC(=O)O)NC(=O)[C@H](CC(C)C)NC(=O)[C@](C)(CC(C)C)NC(=O)[C@@H](NC(=O)[C@H](CO)NC(=O)[C@H](Cc1ccncc1)NC(=O)[C@H](CC(=O)O)NC(=O)[C@H](CO)NC(=O)[C@@H](NC(=O)[C@](C)(Cc1ccccc1F)NC(=O)[C@@H](NC(=O)CNC(=O)[C@H](CCC(=O)O)NC(=O)C(C)(C)NC(=O)[C@@H](N)Cc1ccc(O)cc1)[C@@H](C)O)[C@@H](C)O)[C@@H](C)CC)[C@@H](C)CC)C(=O)N[C@@H](CCC(=O)O)C(=O)NCC(=O)NCC(=O)N[C@@H](CCCCNC(=O)COCCOCCNC(=O)COCCOCCNC(=O)CC[C@H](NC(=O)CCCCCCCCCCCCC(=O)O)C(=O)O)C(=O)N[C@@H](CO)C(=O)N[C@@H](CO)C(=O)NCC(=O)N[C@@H](C)C(=O)N1CCC[C@H]1C(=O)N1CCC[C@H]1C(=O)N1CCC[C@H]1C(=O)N[C@@H](CO)C(N)=O [Example 102] |  |  |  |  |  |  |  | > 9950 nM |  |  |  |  | 96.9% |  | > 9950 nM | 19.1 nM |  |
| CC[C@H](C)[C@H](NC(=O)[C@H](CCCN)NC(=O)[C@H](CC(=O)O)NC(=O)[C@H](CC(C)C)NC(=O)[C@](C)(CC(C)C)NC(=O)[C@@H](NC(=O)[C@H](CO)NC(=O)[C@H](Cc1ccc(OC)cc1)NC(=O)[C@H](CC(=O)O)NC(=O)[C@H](CO)NC(=O)[C@@H](NC(=O)[C@](C)(Cc1ccccc1F)NC(=O)[C@@H](NC(=O)CNC(=O)[C@H](CCC(=O)O)NC(=O)C(C)(C)NC(=O)[C@@H](N)Cc1ccc(O)cc1)[C@@H](C)O)[C@@H](C)O)[C@@H](C)CC)C(=O)N[C@@H](C)C(=O)N[C@@H](CCC(N)=O)C(=O)NC(C)(C)C(=O)N[C@@H](CCCCNC(=O)COCCOCCNC(=O)COCCOCCNC(=O)CC[C@H](NC(=O)CCCCCCCCCCCCC(=O)O)C(=O)O)C(=O)N[C@@H](Cc1ccccc1)C(=O)N[C@H](C(=O)N[C@H](CCC(=O)O)C(=O)N[C@@](C)(Cc1ccc(O)cc1)C(=O)N[C@@H](CC(C)C)C(=O)N[C@H](C(=O)N[C@@H](CCC(=O)O)C(=O)NCC(=O)NCC(=O)N1CCC[C@H]1C(=O)N[C@@H](CO)C(=O)N[C@@H](CO)C(=O)NCC(=O)N[C@@H](C)C(=O)N1CCC[C@H]1C(=O)N1CCC[C@H]1C(=O)N1CCC[C@H]1C(=O)N[C@@H](CO)C(=O)N[C@@H](CCCCNC(=O)COCCOCCNC(=O)COCCOCCNC(=O)CC[C@H](NC(=O)CCCCCCCCCCCCC(=O)O)C(=O)O)C(N)=O)[C@@H](C)CC)[C@@H](C)CC [Example 264] (H-Y[Aib]EGT[αMePhe(2-F)]TSDY(Me)SI[αMeL]LD[Orn]IAQ[Aib]K([AEEA-AEEA-γGlu-C14 diacid])FI[dE][αMeY]LIEGGPSSGAPPPSK([AEEA-AEEA-γGlu-C14 diacid])-NH2) |  |  |  |  |  |  |  | > 9950 nM | > 9950 nM | 105% | 113% | 0.413 nM | 84.4% | 114% |  |  | 0.0208 nM |
